Assay results as given in ChEMBL document CHEMBL3885861, “Open TG-GATES”.

Species on record: Rattus norvegicus
Experiment: Open TG-GATES - Regimen: Daily Repeat
Assay type: toxicity, organism-based, Sprague-Dawley
Parameters: regimen Daily Repeat, gender Male, age 6 weeks
Details: in vivo, po, route gavage; for APTT / Bas / Eos / Fbg / Hb / Ht / Lym / MCH / MCHC / MCV / Mono / Neu / PT / Plat / RBC / Ret / WBC: tissue Blood; for KIDNEY_L / KIDNEY_R / KIDNEY_TOTAL: tissue Kidney; for LIVER: tissue Liver; for A/G / ALP / ALT / AST / BUN / CRE / Ca / Cl / DBIL / GLC / IP / K / LDH / Na / PL / RALB / TBIL / TC / TG / TP / gamma-GTP: tissue Plasma
[1] = 300 mg/kg, 72 h, dose level Middle, time 3 day
[2] = 300 mg/kg, […], dose level Middle, time 7 day
[3] = 300 mg/kg, […], dose level Middle, time 14 day
[4] = 300 mg/kg, […], dose level Middle, time 28 day
[5] = 1000 mg/kg, 72 h, dose level High, time 3 day
[6] = 1000 mg/kg, […], dose level High, time 7 day
[7] = 1000 mg/kg, […], dose level High, time 14 day
[8] = 1000 mg/kg, […], dose level High, time 28 day

CCOc1ccc(NC(=O)CC(C)O)cc1 (centres undefined) [BUCETIN]
TERMINAL_BW [1]: 247.8 g
APTT [1]: 18.9 s
Bas [1]: 0%
Eos [1]: 1.2%
Fbg [1]: 291.2 mg/dL
Hb [1]: 13.1 g/dL
Ht [1]: 39.1%
Lym [1]: 72.8%
MCH [1]: 20.5 pg
MCHC [1]: 33.4%
MCV [1]: 61.3 fL
Mono [1]: 3.4%
Neu [1]: 21.6%
PT [1]: 14.2 s
Plat [1]: 123.5 x10_4/uL
RBC [1]: 638.8 x10_4/ul
Ret [1]: 6.8%
WBC [1]: 109.9 x10_2/uL
KIDNEY_L [1]: 1 g
KIDNEY_R [1]: 1 g
KIDNEY_TOTAL [1]: 2 g
LIVER [1]: 11.7 g
A/G [1]: 0.9
ALP [1]: 1855.6 IU/L
ALT [1]: 39.2 IU/L
AST [1]: 68.2 IU/L
BUN [1]: 15.2 mg/dL
CRE [1]: 0.2 mg/dL
Ca [1]: 10.8 mg/dL
Cl [1]: 104.8 meq/L
DBIL [1]: 0.024 mg/dL
GLC [1]: 184 mg/dL
IP [1]: 6.9 mg/dL
K [1]: 4.2 meq/L
LDH [1]: 99.6 IU/L
Na [1]: 143.4 meq/L
PL [1]: 164.2 mg/dL
RALB [1]: 2.7 g/dL
TBIL [1]: 0.052 mg/dL
TC [1]: 82.8 mg/dL
TG [1]: 116.2 mg/dL
TP [1]: 5.8 g/dL
gamma-GTP [1]: 1 IU/L
TERMINAL_BW [2]: 289.1 g
TERMINAL_BW [3]: 360.7 g
TERMINAL_BW [4]: 431.8 g
APTT [2]: 16.1 s
Bas [2]: 0%
Eos [2]: 1%
Fbg [2]: 278.6 mg/dL
Hb [2]: 13.4 g/dL
Ht [2]: 39.6%
Lym [2]: 74%
MCH [2]: 21.1 pg
MCHC [2]: 33.7%
MCV [2]: 62.5 fL
Mono [2]: 2.8%
Neu [2]: 21.6%
PT [2]: 14 s
Plat [2]: 120 x10_4/uL
RBC [2]: 634.2 x10_4/ul
Ret [2]: 6.8%
WBC [2]: 107.3 x10_2/uL
APTT [3]: 15.9 s
Bas [3]: 0%
Eos [3]: 1%
Fbg [3]: 312 mg/dL
Hb [3]: 14.4 g/dL
Ht [3]: 42.4%
Lym [3]: 75.2%
MCH [3]: 20.8 pg
MCHC [3]: 34.1%
MCV [3]: 61 fL
Mono [3]: 2.4%
Neu [3]: 21.2%
PT [3]: 13.8 s
Plat [3]: 113 x10_4/uL
RBC [3]: 695.6 x10_4/ul
Ret [3]: 4.7%
WBC [3]: 106.6 x10_2/uL
APTT [4]: 18.8 s
Bas [4]: 0%
Eos [4]: 1.4%
Fbg [4]: 274 mg/dL
Hb [4]: 14.7 g/dL
Ht [4]: 42.6%
Lym [4]: 74.6%
MCH [4]: 19.3 pg
MCHC [4]: 34.5%
MCV [4]: 56 fL
Mono [4]: 2.2%
Neu [4]: 20.6%
PT [4]: 14.1 s
Plat [4]: 106.2 x10_4/uL
RBC [4]: 760 x10_4/ul
Ret [4]: 3.5%
WBC [4]: 138.7 x10_2/uL
KIDNEY_L [2]: 1.2 g
KIDNEY_R [2]: 1.1 g
KIDNEY_TOTAL [2]: 2.3 g
KIDNEY_L [3]: 1.4 g
KIDNEY_R [3]: 1.4 g
KIDNEY_TOTAL [3]: 2.7 g
KIDNEY_L [4]: 1.6 g
KIDNEY_R [4]: 1.6 g
KIDNEY_TOTAL [4]: 3.2 g
LIVER [2]: 13.6 g
LIVER [3]: 17.2 g
LIVER [4]: 18.4 g
A/G [2]: 0.8
ALP [2]: 1676.6 IU/L
ALT [2]: 42.4 IU/L
AST [2]: 67.4 IU/L
BUN [2]: 15.8 mg/dL
CRE [2]: 0.2 mg/dL
Ca [2]: 11 mg/dL
Cl [2]: 105.2 meq/L
DBIL [2]: 0.018 mg/dL
GLC [2]: 190.6 mg/dL
IP [2]: 6.6 mg/dL
K [2]: 4.2 meq/L
LDH [2]: 115.2 IU/L
Na [2]: 143.8 meq/L
PL [2]: 178 mg/dL
RALB [2]: 2.7 g/dL
TBIL [2]: 0.04 mg/dL
TC [2]: 91.2 mg/dL
TG [2]: 131.2 mg/dL
TP [2]: 5.9 g/dL
gamma-GTP [2]: 1 IU/L
A/G [3]: 0.8
ALP [3]: 1729.4 IU/L
ALT [3]: 34.2 IU/L
AST [3]: 63 IU/L
BUN [3]: 15 mg/dL
CRE [3]: 0.2 mg/dL
Ca [3]: 11.2 mg/dL
Cl [3]: 104 meq/L
DBIL [3]: 0.02 mg/dL
GLC [3]: 189.4 mg/dL
IP [3]: 6.9 mg/dL
K [3]: 4 meq/L
LDH [3]: 72.8 IU/L
Na [3]: 143.4 meq/L
PL [3]: 179.2 mg/dL
RALB [3]: 2.8 g/dL
TBIL [3]: 0.048 mg/dL
TC [3]: 79.8 mg/dL
TG [3]: 208.6 mg/dL
TP [3]: 6.3 g/dL
gamma-GTP [3]: 1 IU/L
A/G [4]: 0.8
ALP [4]: 1081.4 IU/L
ALT [4]: 39 IU/L
AST [4]: 62.4 IU/L
BUN [4]: 15.2 mg/dL
CRE [4]: 0.3 mg/dL
Ca [4]: 11.2 mg/dL
Cl [4]: 104.8 meq/L
DBIL [4]: 0.028 mg/dL
GLC [4]: 188.8 mg/dL
IP [4]: 6.3 mg/dL
K [4]: 3.8 meq/L
LDH [4]: 78.8 IU/L
Na [4]: 145.4 meq/L
PL [4]: 170.6 mg/dL
RALB [4]: 2.8 g/dL
TBIL [4]: 0.07 mg/dL
TC [4]: 77.2 mg/dL
TG [4]: 188.2 mg/dL
TP [4]: 6.3 g/dL
gamma-GTP [4]: 1 IU/L
TERMINAL_BW [5]: 228.7 g
APTT [5]: 18.5 s
Bas [5]: 0%
Eos [5]: 0.8%
Fbg [5]: 270.2 mg/dL
Hb [5]: 12.8 g/dL
Ht [5]: 38.4%
Lym [5]: 72.6%
MCH [5]: 20.7 pg
MCHC [5]: 33.4%
MCV [5]: 61.9 fL
Mono [5]: 2.8%
Neu [5]: 22.6%
PT [5]: 14.1 s
Plat [5]: 123.8 x10_4/uL
RBC [5]: 620 x10_4/ul
Ret [5]: 2.9%
WBC [5]: 111.1 x10_2/uL
KIDNEY_L [5]: 1.1 g
KIDNEY_R [5]: 1 g
KIDNEY_TOTAL [5]: 2.1 g
LIVER [5]: 11.8 g
A/G [5]: 0.9
ALP [5]: 1511.6 IU/L
ALT [5]: 41.2 IU/L
AST [5]: 74 IU/L
BUN [5]: 15.4 mg/dL
CRE [5]: 0.2 mg/dL
Ca [5]: 10.6 mg/dL
Cl [5]: 106.8 meq/L
DBIL [5]: 0.028 mg/dL
GLC [5]: 168 mg/dL
IP [5]: 6.2 mg/dL
K [5]: 4.3 meq/L
LDH [5]: 76 IU/L
Na [5]: 144.6 meq/L
PL [5]: 161.4 mg/dL
RALB [5]: 2.6 g/dL
TBIL [5]: 0.06 mg/dL
TC [5]: 78.6 mg/dL
TG [5]: 102.2 mg/dL
TP [5]: 5.6 g/dL
gamma-GTP [5]: 1.2 IU/L
TERMINAL_BW [6]: 268.8 g
TERMINAL_BW [7]: 329.1 g
TERMINAL_BW [8]: 402.4 g
APTT [6]: 20.3 s
Bas [6]: 0%
Eos [6]: 1%
Fbg [6]: 270.6 mg/dL
Hb [6]: 12.7 g/dL
Ht [6]: 38.7%
Lym [6]: 67.2%
MCH [6]: 21 pg
MCHC [6]: 32.9%
MCV [6]: 64 fL
Mono [6]: 3.4%
Neu [6]: 27.6%
PT [6]: 14.3 s
Plat [6]: 126.9 x10_4/uL
RBC [6]: 606 x10_4/ul
Ret [6]: 9.2%
WBC [6]: 166.9 x10_2/uL
APTT [7]: 21.6 s
Bas [7]: 0.8%
Eos [7]: 0.6%
Fbg [7]: 295.4 mg/dL
Hb [7]: 12.9 g/dL
Ht [7]: 39.7%
Lym [7]: 69.2%
MCH [7]: 22.9 pg
MCHC [7]: 32.7%
MCV [7]: 70.1 fL
Mono [7]: 3%
Neu [7]: 26.2%
PT [7]: 14.3 s
Plat [7]: 126.3 x10_4/uL
RBC [7]: 567.8 x10_4/ul
Ret [7]: 10.4%
WBC [7]: 123.6 x10_2/uL
APTT [8]: 19.3 s
Bas [8]: 0.6%
Eos [8]: 1.2%
Fbg [8]: 278.2 mg/dL
Hb [8]: 14.3 g/dL
Ht [8]: 42.1%
Lym [8]: 78.2%
MCH [8]: 23.2 pg
MCHC [8]: 34%
MCV [8]: 68.4 fL
Mono [8]: 2.2%
Neu [8]: 17.4%
PT [8]: 14.4 s
Plat [8]: 102.2 x10_4/uL
RBC [8]: 618.4 x10_4/ul
Ret [8]: 8%
WBC [8]: 137.4 x10_2/uL
KIDNEY_L [6]: 1.1 g
KIDNEY_R [6]: 1.1 g
KIDNEY_TOTAL [6]: 2.3 g
KIDNEY_L [7]: 1.3 g
KIDNEY_R [7]: 1.3 g
KIDNEY_TOTAL [7]: 2.7 g
KIDNEY_L [8]: 1.6 g
KIDNEY_R [8]: 1.5 g
KIDNEY_TOTAL [8]: 3.1 g
LIVER [6]: 12.7 g
LIVER [7]: 14.6 g
LIVER [8]: 17.3 g
A/G [6]: 0.8
ALP [6]: 1387.6 IU/L
ALT [6]: 50 IU/L
AST [6]: 79.4 IU/L
BUN [6]: 16 mg/dL
CRE [6]: 0.2 mg/dL
Ca [6]: 10.9 mg/dL
Cl [6]: 106.2 meq/L
DBIL [6]: 0.032 mg/dL
GLC [6]: 180.8 mg/dL
IP [6]: 6.6 mg/dL
K [6]: 4.4 meq/L
LDH [6]: 97.4 IU/L
Na [6]: 144.4 meq/L
PL [6]: 162.8 mg/dL
RALB [6]: 2.8 g/dL
TBIL [6]: 0.08 mg/dL
TC [6]: 74.6 mg/dL
TG [6]: 133.4 mg/dL
TP [6]: 6 g/dL
gamma-GTP [6]: 1 IU/L
A/G [7]: 0.8
ALP [7]: 1241.8 IU/L
ALT [7]: 42.6 IU/L
AST [7]: 73.4 IU/L
BUN [7]: 14.2 mg/dL
CRE [7]: 0.2 mg/dL
Ca [7]: 10.8 mg/dL
Cl [7]: 105.8 meq/L
DBIL [7]: 0.036 mg/dL
GLC [7]: 170.4 mg/dL
IP [7]: 6.5 mg/dL
K [7]: 4.4 meq/L
LDH [7]: 97.8 IU/L
Na [7]: 143.6 meq/L
PL [7]: 150.8 mg/dL
RALB [7]: 2.8 g/dL
TBIL [7]: 0.1 mg/dL
TC [7]: 71.6 mg/dL
TG [7]: 91.2 mg/dL
TP [7]: 6.1 g/dL
gamma-GTP [7]: 1 IU/L
A/G [8]: 0.8
ALP [8]: 1352.6 IU/L
ALT [8]: 36.4 IU/L
AST [8]: 65 IU/L
BUN [8]: 16.8 mg/dL
CRE [8]: 0.3 mg/dL
Ca [8]: 11 mg/dL
Cl [8]: 104 meq/L
DBIL [8]: 0.042 mg/dL
GLC [8]: 182.2 mg/dL
IP [8]: 6.5 mg/dL
K [8]: 4 meq/L
LDH [8]: 93.4 IU/L
Na [8]: 143.8 meq/L
PL [8]: 155.8 mg/dL
RALB [8]: 2.9 g/dL
TBIL [8]: 0.1 mg/dL
TC [8]: 71.2 mg/dL
TG [8]: 117.2 mg/dL
TP [8]: 6.4 g/dL
gamma-GTP [8]: 1.4 IU/L
